In PubChem BioAssay (NCI):
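Interpolation was linear, between the two tested concentrations surrounding the appropriate level; five concentrations were tested over 48 hours in 96-well plates. TGI marks complete inhibition of growth.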

Assays:
Test in all cases: growth of human tumour cells (NCI), 48 h
SF-268 CNS = tested on: SF-268 CNS
UACC-257 melanoma = tested on: UACC-257 melanoma
SF-539 CNS = tested on: SF-539 CNS
KM20L2 colon = tested on: KM20L2 colon
HOP-92 NSCLC = tested on: HOP-92 NSCLC
KM12 colon = tested on: KM12 colon
RPMI-8226 leukemia = tested on: RPMI-8226 leukemia
SK-OV-3 ovarian = tested on: SK-OV-3 ovarian
SNB-19 CNS = tested on: SNB-19 CNS
ACHN renal = tested on: ACHN renal
SK-MEL-28 melanoma = tested on: SK-MEL-28 melanoma
NCI-H226 lung = tested on: NCI-H226 lung
SR leukemia = tested on: SR leukemia
OVCAR-8 ovarian = tested on: OVCAR-8 ovarian
SNB-78 CNS = tested on: SNB-78 CNS
NCI-H23 lung = tested on: NCI-H23 lung
MOLT-4 leukemia = tested on: MOLT-4 leukemia
OVCAR-5 ovarian = tested on: OVCAR-5 ovarian
DMS 114 small cell lung = tested on: DMS 114 small cell lung
XF 498 CNS = tested on: XF 498 CNS
OVCAR-4 ovarian = tested on: OVCAR-4 ovarian
DLD-1 colon = tested on: DLD-1 colon
LOX IMVI melanoma = tested on: LOX IMVI melanoma
M14 melanoma = tested on: M14 melanoma
786-0 renal = tested on: 786-0 renal
SF-295 CNS = tested on: SF-295 CNS
NCI-H522 lung = tested on: NCI-H522 lung
A498 renal = tested on: A498 renal
RXF 393 renal = tested on: RXF 393 renal
CCRF-CEM leukemia = tested on: CCRF-CEM leukemia
OVCAR-3 ovarian = tested on: OVCAR-3 ovarian
DMS 273 small cell lung = tested on: DMS 273 small cell lung
TK-10 renal = tested on: TK-10 renal
COLO 205 colon = tested on: COLO 205 colon
NCI-H460 lung = tested on: NCI-H460 lung
HCC-2998 colon = tested on: HCC-2998 colon
LXFL 529 NSCLC = tested on: LXFL 529 NSCLC
M19-MEL melanoma = tested on: M19-MEL melanoma
HCT-116 colon = tested on: HCT-116 colon
EKVX NSCLC = tested on: EKVX NSCLC
HOP-62 NSCLC = tested on: HOP-62 NSCLC
K-562 leukemia = tested on: K-562 leukemia
HT29 colon = tested on: HT29 colon
UACC-62 melanoma = tested on: UACC-62 melanoma
SW-620 colon = tested on: SW-620 colon
CAKI-1 renal = tested on: CAKI-1 renal
HCT-15 colon = tested on: HCT-15 colon
SN12C renal = tested on: SN12C renal
IGROV1 ovarian = tested on: IGROV1 ovarian
U251 CNS = tested on: U251 CNS
HL-60(TB) leukemia = tested on: HL-60(TB) leukemia
MALME-3M melanoma = tested on: MALME-3M melanoma
SK-MEL-5 melanoma = tested on: SK-MEL-5 melanoma
UO-31 renal = tested on: UO-31 renal
SK-MEL-2 melanoma = tested on: SK-MEL-2 melanoma
SNB-75 CNS = tested on: SNB-75 CNS
A549 NSCLC = tested on: A549 NSCLC
HOP-18 NSCLC = tested on: HOP-18 NSCLC

Measured: TGI

Cc1nc2c(s/c(=N\N)n2-c2ccccc2)c(=O)[nH]1
not listed: HOP-18 NSCLC
> 100 µM: all other assays above

O=C(O/N=C1/CCC/C1=C\c1ccccc1)c1ccccc1
78.1 µM: MOLT-4 leukemia
89.9 µM: LXFL 529 NSCLC
not listed: SNB-19 CNS | XF 498 CNS | NCI-H460 lung | HCC-2998 colon | M19-MEL melanoma | UO-31 renal
> 100 µM: all other assays above

O=C(CC1(O)C(=O)Nc2ccccc21)c1ccc(O)cc1O (centres undefined)
not listed: KM12 colon | SR leukemia | CCRF-CEM leukemia | HCC-2998 colon | U251 CNS | HOP-18 NSCLC
> 100 µM: all other assays above

O=C(CSc1nnc(-c2ccc(N=Cc3ccc(Cl)cc3)cc2)o1)Nc1ccccc1
47 µM: 786-0 renal
36.4 µM: LOX IMVI melanoma
35.5 µM: NCI-H522 lung
96.9 µM: RXF 393 renal
70.6 µM: DMS 273 small cell lung
31.1 µM: HCT-116 colon
not listed: SF-539 CNS | HOP-92 NSCLC | KM12 colon | OVCAR-5 ovarian | DLD-1 colon | A498 renal | OVCAR-3 ovarian | HCC-2998 colon | CAKI-1 renal | IGROV1 ovarian
> 100 µM: all other assays above
